According to patent EP0447812B1, “Use of a dihydropyridine to improve the inner ear blood circulation” (FUJISAWA PHARMACEUTICAL CO., LTD., priority 1990, dated 1991):

What was measured:
Male Wistar rats = experiment: Test 1: Rose Bengal/green light photo-illumination of the cochlear lateral wall, compound action potential (CAP) recorded by electrocochleography; format: in vivo; settings: 0.3 mg/kg injected intravenously 10 minutes prior to photo-illumination; 6 animals; vehicle only 12.0 min.
Experimental: Male Wistar rats (body weights 240 - 260 g) were anesthetized with pentobarbital. After tracheotomy, the animals were artificially ventilated with a Harvard 683 respirator. A solution of Rose Bengal (RB) in saline (10 mg/ml) was infused into the femoral vein at a speed of 24 µmoles/kg per hour. After initiation of Rose Bengal infusion, the left middle ear was opened and, for electrocochleography, the round window lead electrode was fixed in position. Thus, after incision of the skin and muscle of the neck region, the tympanic cavity was drilled with a miniature drill and a silver ball electrode was placed on the round window membrane for use as an active electrode. An indifferent electrode was placed in the middle of the back of the head. Thirty minutes after initiation of Rose Bengal infusion, the lateral wall of the cochlea was irradiated with a green light (540 nm) conducted from a light source (L-3306-01A, Hamamatsu Photonics) through an optical fiber. Using a manipulator, the free end of the optical fiber was fixed about 5 mm away from the lateral wall of the cochlea. In this arrangement, the compound action potential (CAP) was recorded at 1-minute intervals. The electrocochleogram was recorded with Nihon Kohden Neuropack II by averaging 128 clicks of 8 kHz at a sound pressure level of 100 dB. […]

Rats = experiment: Test 2: Rose Bengal/green light photoillumination of the oval window, nystagmus test and swimming test for imbalance 24 hours later; format: in vivo; settings: 0.03 mg/kg intravenously at the beginning of photoillumination, 12 animals, dosage 0: 100 %
Experimental: Rats were anesthetized with pentobarbital, and with the body temperature maintained at 37°C with a heating pad, an aqueous solution of Rose Bengal was continuously infused into the femoral vein. The […] was then opened and the tympanic membrane, incus and malleus were removed taking care not to impair the inner ear.
Using a Hamamatsu Photonic xenon lamp, the oval window was irradiated with a green light of 540 nm via an optical fiber. Using a manipulator, the end of the fiber was fixed about 3 mm from the lateral wall of the cochlea.
Photoillumination was started 20 minutes after the beginning of Rose Bengal infusion and a solution of the test compound in polyethylene glycol (400)-water (1:1, v/v) was intravenously administered at the beginning of photoillumination. After 40 minutes of irradiation, both the photoillumination and Rose Bengal infusion were terminated, the wound was sutured, and the animal was allowed to regain consciousness. At 24 hours after termination of photoillumination, a nystagmus test and a swimming test for imbalance were performed.

COC(=O)C1=C(C#N)NC(C)=C(C(=O)OC(C)C)C1c1cccc([N+](=O)[O-])c1 (stereo not drawn) [dihydropyridine compound A, Isopropyl 6-cyano-5-methoxycarbonyl-2-methyl-4-(3-nitrophenyl)-1,4-dihydropyridine-3-carboxylate]
Action potential disappearance time (Male Wistar rats): 14.5 min | Incidence (%) imbalance (Rats; swimming test 24 hours after termination of photoillumination): 58.3% | Incidence (%) Nystagmus (Rats; tested 24 hours after termination of photoillumination): 58.3%
